Data reported in patent US5385885A, “Inhibition of smooth muscle cell proliferation by antistasin and tick anticoagulant peptide” (priority 1991, dated 1995).
“Also recorded” adds a separate entry of the source.

Columns and labels:
[1] = system: human venous endothelial cells; assay: Release of mitogens from endothelial cells stimulated with PDGF; conditioned media tested for mitogenic activity on 3T3 cells; format: cell-based; conditions: PDGF 2 ng/ml, ATS 5 nM, 16 h
Method: Confluent primary cultures or subcultures (passages 1 and 2) of human venous endothelial cells were cultured in serum-free Dulbecco's Minimal Essential Medium (DMEM)+0.1% bovine serum albumin (BSA) in the presence of platelet-derived growth factor (PDGF) (2 ng/ml), antistasin (ATS) (5.0-10 nM), or both. Control cultures were untreated or received 2 ng/ml PDGF. After 16 hours incubation at 37° C., conditioned media (CM) from the test and control cell cultures were collected and tested for mitogenic activity (MIT) using confluent NIH 3T3 cells (CCL 163, American Type Culture Collection, Rockville, Md.).
(§1) Primary cultures of EC derived from umbilical cord veins were prepared and grown according to a protocol provided to by Dr. Gwendolyn Stewart (Temple University Thrombosis Center, Phila., Pa.). After washing the lumen of the vein twice with DMEM, EC were dissociated with a solution containing 0.05% trypsin and 0.1% collagenase. Thirty minutes later, the venous content and the perfused DMEM (35 ml) was collected into a fifty ml centrifuge tube containing 3.5 ml of bovine serum and the mixture spun at 900 rpm for 10 minutes. The supernate was discarded and the cell pellet resuspended in 3.0 ml DMEM containing 20% fetal bovine serum (FBS) (heat inactivated at 56° C. for 30 minutes), 90 μg heparin per ml, 5 μg fibronectin per ml, and 60 μg endothelial growth factor per ml (cDMEM), and seeded into 35 mm tissue culture dishes. After 24 hours of incubation at 37 °C, 5% CO2, the culture was washed 3-4 times with DMEM and incubated 2-4 days until the cells were confluent. The monolayers were washed with phosphate buffered saline (PBS) and cultured in DMEM with 0.1% BSA in the presence and absence of 2 ng/ml PDGF, 5 nM antistasin, or a mixture of both. As positive and negative controls, separated monolayers were incubated with the medium plus 2 ng/ml PDGF or with the medium alone. […] The lysate was transferred to vials with scintillation fluid and radioactivity monitored in a beta radiation counter. […]

[2] = system: human venous endothelial cells; assay: Release of mitogens from endothelial cells stimulated with factor Xa; conditioned media tested for mitogenic activity on 3T3 cells; format: cell-based; conditions: 1 unit = activity induced by 2 ng/ml PDGF, FXa 1 nM, ATS 5 nM, PDGF 2 ng/ml, 16 h
Method: Confluent primary cultures or subcultures (passages 1 and 2) of human venous endothelial cells (EC) were cultured in serum-free Dulbecco's Minimal Essential Medium (DMEM)+0.1% bovine serum albumin (BSA) in the presence of human or bovine factor Xa(1 nM) (Sigma Chemical Co., St. Louis, Mo.), antistasin (ATS) (0.5-5.0 nM), or both. Control cultures were untreated or received 2 ng/ml platelet-derived growth factor (PDGF) (Sigma Chemical Co., St. Louis, Mo.). After 16 hours incubation at 37° C., the conditioned media (CM) from the test and control cell cultures were collected and tested for mitogenic activity (MIT) using confluent NIH 3T3 cells (CCL 163, American Type Culture Collection, Rockville, Md.).
as §1, with “1 nM factor Xa,” for “2 ng/ml PDGF,”, “alone. After 16 hours of incubation at 37° C., conditioned media (CM) were collected, centrifuged at 4000×g for 10 minutes, and the supernate was collected and stored at 4° C. until use. The mitogenic activity of the CM was tested by measuring the incorporation of [^3 H] thymidine into cultures of Balb 3T3 cells. For this purpose, wells were seeded with 2×10^4 3T3 cells suspended in 1 ml DMEM with 10% FBS. Once confluent (5-7 days of culture), CM were added and cells incubated for 18 hours at 37° C. after which cultures were washed with warm DMEM, tritiated thymidine added (1 μCi/ml) and cells incubated for 4 hours at 37° C.” for “alone.”

[3] = target: blood coagulation factor Xa (Homo sapiens, UniProt P00742); conditions: Waxman et al.; cited from earlier work
Sequence of blood coagulation factor Xa (P00742 235-488 limits assumed): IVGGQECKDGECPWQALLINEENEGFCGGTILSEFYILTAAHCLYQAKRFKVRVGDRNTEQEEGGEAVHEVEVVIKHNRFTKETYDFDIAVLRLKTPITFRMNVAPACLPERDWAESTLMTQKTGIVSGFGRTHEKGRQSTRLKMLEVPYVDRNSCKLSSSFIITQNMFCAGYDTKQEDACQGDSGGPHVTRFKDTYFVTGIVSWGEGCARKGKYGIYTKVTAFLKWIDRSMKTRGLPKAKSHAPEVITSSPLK
Sequence of blood coagulation factor Xa (P00742 41-179 partner limits assumed): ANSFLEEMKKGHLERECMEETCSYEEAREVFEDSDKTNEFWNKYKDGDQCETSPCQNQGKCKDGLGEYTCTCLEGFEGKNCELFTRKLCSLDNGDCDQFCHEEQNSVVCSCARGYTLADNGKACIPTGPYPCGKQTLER

smooth muscle cells [4] = assay: Effect of factor Xa inhibitors on human protein S and bovine factor X induced smooth muscle cell mitogenesis; format: cell-based, rat; conditions: FIG. 3
Method: Primary smooth muscle cell cultures were prepared from the thoracic and abdominal aorta of 2-3 month old Wistar rats essentially using the procedure of Reilly, C. F. (1990) J. Cell Physiol. 142,342 (1990). After removing as much fat and adherent adventitia as possible with scissors and forceps, the tissue was finely minced, enzymatically dissociated with successive 37° C. incubations in HBSS containing collagenase (Sigma, 0.5 mg/ml for 15 min.), then elastase (Sigma, 0.125 mg/ml for 30 min.) and again collagenase (60 min.). […] Cells were grown in Dulbecco's Minimal Essential Medium (DMEM) containing 10% fetal bovine serum (FBS) with antibiotics. […]
(§2) The prepared rat smooth muscle cells were seeded in Falcon 24 multiwell plates (10^5 cells/well) and cultured at 37° C., in a 5% CO2 atmosphere in 1 ml DMEM containing 10% FBS. […] The cells were washed twice with cold phosphate buffered saline (PBS), treated twice with 5% trichloroacetic acid (TCA) for 5 min., dissolved with 0.25N NaOH (0.4 ml) incubated at 37° C. for 60 min., mixed with 5 ml Ecolume (ICN Biomedicals, Costa Mesa, Calif.), and their radioactivity determined in a scintillation counter. […] Smooth muscle cell mitogenic activity produced by exogenous agents is expressed as % relative mitogenic activity which is defined as: [formula] […]

smooth muscle cells [5] = assay: Effect of antistasin and tick anticoagulant peptide on factor Xa induced mitogenesis of smooth muscle cells; format: cell-based, rat; conditions: FIG. 2
Method: Primary smooth muscle cell cultures were prepared from the thoracic and abdominal aorta of 2-3 month old Wistar rats essentially using the procedure of Reilly, C. F. (1990) J. Cell Physiol. 142,342 (1990). After removing as much fat and adherent adventitia as possible with scissors and forceps, the tissue was finely minced, enzymatically dissociated with successive 37° C. incubations in HBSS containing collagenase (Sigma, 0.5 mg/ml for 15 min.), then elastase (Sigma, 0.125 mg/ml for 30 min.) and again collagenase (60 min.). […] Cells were grown in Dulbecco's Minimal Essential Medium (DMEM) containing 10% fetal bovine serum (FBS) with antibiotics. […] Using a monoclonal antibody to alpha actin (Sigma Chemical Company, St. Louis, Mo.), about 60-80% (preparation dependent) of these confluent cells stained positive for this smooth muscle cell marker. After 10 days in culture, the cells were dissociated with trypsinethylene diamine tetraacetate (EDTA), split 1:10 and subcultured in the above medium. At confluence the cells were transferred to DMEM containing 0.1 % FBS for a 24 hour period before using them for assay. […]
as §2
The effects of antistasin and tick anticoagulant peptide on factor Xa induced mitogenesis of smooth muscle cells were tested using the method shown in Example 4. […] At the end of the 24 hour incubation, ^3 H-thymidine incorporation into DNA was monitored and smooth muscle cell mitogenic activity was assessed as described in Example 4.

kallikrein = conditions: Waxman et al.; cited from earlier work
trypsin = target: T1, trypsin (Bos taurus, UniProt P00760); conditions: Waxman et al.; cited from earlier work
T1 construct: gene PRSS1
T1 sequence (P00760 24-246): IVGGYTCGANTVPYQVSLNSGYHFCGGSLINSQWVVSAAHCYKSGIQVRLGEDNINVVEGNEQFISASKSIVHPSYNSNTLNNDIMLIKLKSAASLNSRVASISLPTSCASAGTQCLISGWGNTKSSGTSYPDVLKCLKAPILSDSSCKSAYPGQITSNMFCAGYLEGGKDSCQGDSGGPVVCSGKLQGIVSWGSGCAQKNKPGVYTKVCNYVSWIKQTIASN

Factor VIIa = target: T2, Factor VIIa (Homo sapiens, UniProt P08709); conditions: Waxman et al.; cited from earlier work
T2 sequence (P08709 213-466 limits assumed): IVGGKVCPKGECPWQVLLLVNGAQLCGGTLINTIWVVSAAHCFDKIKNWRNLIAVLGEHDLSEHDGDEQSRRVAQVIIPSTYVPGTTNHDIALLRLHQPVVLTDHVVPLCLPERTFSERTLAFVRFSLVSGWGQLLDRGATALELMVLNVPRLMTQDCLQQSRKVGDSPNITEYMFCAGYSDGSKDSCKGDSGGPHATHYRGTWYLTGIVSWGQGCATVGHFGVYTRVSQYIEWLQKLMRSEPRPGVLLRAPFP
T2 sequence (P08709 61-212 partner limits assumed): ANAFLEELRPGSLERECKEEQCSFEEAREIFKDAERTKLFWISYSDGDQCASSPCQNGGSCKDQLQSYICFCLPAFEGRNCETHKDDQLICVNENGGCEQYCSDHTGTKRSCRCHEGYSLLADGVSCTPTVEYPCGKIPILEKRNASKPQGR

thrombin = thrombin (Homo sapiens, UniProt P00734); conditions: Waxman et al.; cited from earlier work
chymotrypsin = chymotrypsin (Bos taurus, UniProt P00766); conditions: Waxman et al.; cited from earlier work

With PDGF [reference compound] the “Mitogenic units of EC conditioned media” value ([1]; EXP 1) was 1.00 mitogenic units, the “Mitogenic units of EC conditioned media” value ([1]; EXP 2) was 1.00 mitogenic units and the “Mitogenic units of EC conditioned media” value ([1]; EXP 3) was 1.00 mitogenic units. For the same substance, the “Mitogenic units of EC conditioned media” value ([2]; EXP 1) was 1.00 mitogenic units, the “Mitogenic units of EC conditioned media” value ([2]; EXP 2) was 1.00 mitogenic units and the “Mitogenic units of EC conditioned media” value ([2]; EXP 3) was 1.00 mitogenic units. For the same substance, the “Mitogenic units of EC conditioned media” value ([2]; EXP 4) was 1.00 mitogenic units.

In the case of “tick anticoagulant peptide (YNRLCIKPRDWIDECDSNEGGERAYFRNGKGGCDSFWICPEDHTGADYYSSYRDCFNACI; UniProt P17726 1-60, looked up) [TAP, 60-amino acid peptide isolated from extracts of the soft tick Ornithodoros moubata]”, the “Inhibition of blood factor Xa” value [3] is listed as “highly specific inhibitor; also recorded: potent inhibitor”, the “Inhibition of relative mitogenic activity of bovine factor X” value (smooth muscle cells [4]; 10 nM bovine factor X with 100 nM TAP) is listed as “not significantly inhibited” and the “Inhibition of relative mitogenic activity of protein S” value (smooth muscle cells [4]; protein S with 250 nM TAP) is listed as “abolished”. For the same substance, the “Relative mitogenic activity above control” value (smooth muscle cells [5]; 10 nM fXa and 3-25 nM TAP) was “about 25%”, the “Relative mitogenic activity above control” value (smooth muscle cells [5]; 10 nM fXa and 50-62 nM TAP) was “about 9%” and the “Relative mitogenic activity above control” value (smooth muscle cells [5]; 10 nM fXa with 100-250 nM TAP) was “near zero”. The Effect on kallikrein (kallikrein) was “no effect”, the Effect on trypsin (trypsin) was “no effect” and the “Effect on Factor VIIa” value (Factor VIIa) was “no effect”. For the same substance, the Effect on thrombin (thrombin) was “no effect” and the Effect on chymotrypsin (chymotrypsin) was “no effect”.
